The results in this text go back to the NIST ThermoML archive (doi:10.1016/j.fluid.2010.05.017).

A short description of data set [1]: refractive index (Na D-line) (dimensionless). To be noted: 298.15 K; 101.33 kPa; Liquid; Standard Abbe refractometry.
For data set [2] the following is noted: 298.15 K; 101.33 kPa; Liquid; Vibrating tube method.
A short description of data set [3]: xn = mol fraction of the nth substance listed. To be noted: 298.15 K, 101 kPa, Liquid, Vibrating tube method.

Numbers after ± are expanded uncertainties.

Broadly, the refractive index is a measure of how strongly the sample bends light. The mass density is the mass of a sample divided by its volume. With `CCOS(=O)(=O)[O-].CC[n+]1cccc(C)c1` [1-ethyl-3-methylpyridinium ethylsulfate], the refractive index in data set [1] is on record as 1.50591 ± 0.00071. Also, the mass density in data set [2] turned out to be 1219.61 ± 0.42 kg/m3.

Take `Cc1cccc(C)c1` [1,3-dimethylbenzene] + CCCCCC: the mass density in data set [3] (x2 = 0) was determined as 859.79 ± 0.24 kg/m3; in data set [3] (x2 = 0.05) it was 849.62 ± 2.5 kg/m3; in data set [3] (x2 = 0.098), 839.51 ± 2.5 kg/m3; in data set [3] (x2 = 0.194), 819.34 ± 2.5 kg/m3; in data set [3] (x2 = 0.297), 797.9 ± 2.5 kg/m3; in data set [3] (x2 = 0.398), 777.18 ± 2.5 kg/m3. For the same compound, the mass density is 756.55 ± 2.5 kg/m3 in data set [3] (x2 = 0.498); 735.62 ± 2.5 kg/m3 in data set [3] (x2 = 0.6); 715.46 ± 2.5 kg/m3 in data set [3] (x2 = 0.699); 696.42 ± 2.4 kg/m3 in data set [3] (x2 = 0.793); 676.03 ± 2.4 kg/m3 in data set [3] (x2 = 0.896); 665.51 ± 2.4 kg/m3 in data set [3] (x2 = 0.948).

`CCCCCC` [hexane] + Cc1ccccc1C: the mass density in data set [3] (x1 = 1) is 655.19 ± 0.25 kg/m3.

On to `Cc1ccc(C)cc1` [1,4-dimethylbenzene] + CCCCCC, for which the mass density amounted to 856.59 ± 0.24 kg/m3 in data set [3] (x2 = 0); 847.14 ± 2.4 kg/m3 in data set [3] (x2 = 0.048); 836.82 ± 2.5 kg/m3 in data set [3] (x2 = 0.098); 816.92 ± 2.5 kg/m3 in data set [3] (x2 = 0.196); 797.23 ± 2.5 kg/m3 in data set [3] (x2 = 0.292); 776.41 ± 2.5 kg/m3 in data set [3] (x2 = 0.394). Besides, the mass density in data set [3] (x2 = 0.492) worked out at 756.57 ± 2.4 kg/m3; in data set [3] (x2 = 0.591), 736.73 ± 2.4 kg/m3; in data set [3] (x2 = 0.692) it was 716.48 ± 2.4 kg/m3; in data set [3] (x2 = 0.792), 696.69 ± 2.4 kg/m3; in data set [3] (x2 = 0.892), 676.71 ± 2.4 kg/m3; in data set [3] (x2 = 0.948) it was 665.7 ± 2.4 kg/m3.

As to `Cc1ccccc1C` [1,2-dimethylbenzene] + CCCCCC, the mass density stood at 875.37 ± 0.24 kg/m3 in data set [3] (x2 = 0); 865.52 ± 2.7 kg/m3 in data set [3] (x2 = 0.045); 853.5 ± 2.7 kg/m3 in data set [3] (x2 = 0.097); 832.71 ± 2.7 kg/m3 in data set [3] (x2 = 0.189); 809.05 ± 2.7 kg/m3 in data set [3] (x2 = 0.295); 786.32 ± 2.7 kg/m3 in data set [3] (x2 = 0.397). The mass density in data set [3] (x2 = 0.495) is 764.54 ± 2.7 kg/m3; in data set [3] (x2 = 0.597) it was 742.07 ± 2.6 kg/m3; in data set [3] (x2 = 0.697), 720.32 ± 2.6 kg/m3; in data set [3] (x2 = 0.797), 698.71 ± 2.6 kg/m3; in data set [3] (x2 = 0.901), 676.45 ± 2.6 kg/m3; in data set [3] (x2 = 0.95), 665.83 ± 2.6 kg/m3.

With `CCCCCC` [hexane] + Cc1ccc(C)cc1, the mass density in data set [3] (x1 = 1) was determined as 655.19 ± 0.25 kg/m3.

`CCCCCC` [hexane] + Cc1cccc(C)c1: in data set [3] (x1 = 1), the mass density turned out to be 655.19 ± 0.25 kg/m3.
